From patent US10780174B2, “Lipid-linked prodrugs” (The University of British Columbia, priority 2015, dated 2020)

Columns and labels:
OVCAR3 cells = assay: In vitro growth inhibition by LD-DTX prodrugs, cell viability assay; assay type: cell-based; settings: for IC50: Homo sapiens, OVCAR-3, 48 h, Ovcar3 cells
Experimental: OVCAR3 cells were obtained from ATCC (Manassas, Va.). Cells were seeded at 12,000 cells per well on 96-well plates and treated with free docetaxel, prodrugs, lipid nanoparticle formulations with or without prodrugs at 0 to 15 μM of docetaxel for 48 h. Cell viability was determined by a colorimetric assay, based on the tetrazolium salt MIT (3-(4,5-dimethylthiazol-2-yl)-2,5-diphenyltetrazolium bromide), as described previously [Mossman 1983].

[1] = test system: immunostimulatory effects of LNP-CpG (plasma cytokines); assay: In vivo immune suppression by LD-DEX prodrugs, LNP-CpG model; design: species or system C57Bl/6 mice; settings: mice, i.v., 10 mg/kg of CpG, 2 h post injection
Experimental: 6-8 Weeks old female C57Bl/6 mice (Charles River Laboratories™, Wilmington, Mass.) were injected intravenously with lipid nanoparticles containing CpG DNA oligonucleotides (10 mg/kg), mRNA (3 mg/kg) or plasmid DNA (pDNA) (1 mg/kg). Animals were euthanized 2 hours post-injection and blood was collected via intracardiac or saphenous sampling. Plasma was separated from whole blood by centrifugation and analyzed for proinflammatory cytokines using the Mesoscale Proinflammatory Multiplex™ kit (Rockville, Md.) according to manufacturer's instruction. All procedures were approved by the Animal Care Committee at the University of British Columbia and were performed in accordance with guidelines established by the Canadian Council on Animal Care.

[2] = Particle size and polydispersity of LNP containing prodrug (dynamic light scattering); assay type: physicochemical; settings: PDI in brackets
Experimental: (§1) Preparation of LNP Systems: PC-Chol LNP systems were prepared by rapidly mixing POPC, cholesterol, lipid-linked prodrug and PEG-DMPE (in molar ratio of 49/39/10/2) dissolved in ethanol with phosphate-buffered saline using a T-junction mixer. Formulations were dialyzed against phosphate-buffered saline to remove residual ethanol and to raise the pH to 7.4. PC-TO and ionizable LNP systems were prepared in the same way except that the lipid compositions for these systems are: POPC, triolein, lipid-linked prodrug and PEG-DSPE (in molar ration of 19/70/10/1), and ionizable lipid, DSPC, cholesterol, lipid-linked prodrug and PEG-DMPE (in molar ration of 40/10/38.5/10/1.5), respectively.
Characterization of LNP: Particle size was determined by dynamic light scattering using a Malvern Zetasizer Nano ZS™ (Malvern, UK) following buffer exchange into phosphate-buffered saline. Number-weighted size and distribution data was used. Lipid concentrations were determined by measuring total cholesterol using the Cholesterol E enzymatic assay kit from Wako Chemicals USA™ (Richmond, Va.). The morphology of LNP formulations containing LD-DEX was analyzed by cryogenic-transmission electron microscopy (cryoTEM) as described previously [Leung et al. (2012)].

[3] = Prodrug incorporation (entrapment) in lipid nanoparticles, UHPLC; assay type: physicochemical
Experimental: as §1
(§2) Quantitation of prodrugs by HPLC: LD-DEX/DTX were quantified by ultra high-pressure liquid chromatography (UHPLC) using a Waters Acquity™ UPLC system equipped with a photodiode array detector (PDA) and evaporative light scattering (ELS) detector; Empower™ data acquisition software version 3.0 was used (Waters™, USA). Separations were performed using a Waters Acquity™ BEH C18 column (1.7 μm, 2.1×100 mm) at a flow rate of 0.5 ml/min, with mobile phases A and B consisting of methanol/10 mM ammonium bicarbonate (80/20% v/v) and methanol/acetonitrile (80/20% v/v), respectively. The mobile phases were delivered at a programmed linear gradient (45%-80% B in 1 min then to 99% B at 2 min) at a column temperature of 55° C. The analyte was measured by PDA (at a wavelength of 239 nm) and ELS detector against calibration standard curves. For the analysis of LD-DEX/DTX breakdown to active compound, linear gradients of 20/80% to 100/0% (acetonitrile/water, v/v) over 7 min were used.

[4] = In vitro degradation of lipid-linked prodrugs in LNP, mouse plasma; assay type: in vitro ADME; settings: LNP; for prodrug cleavage/degradation after 1 h in plasma: 37° C., mouse plasma
Experimental: as §2
To determine the biodegradability of the dexamethasone or docetaxel prodrugs (LD-DEX/DTX), 1 mg/mL LNP was incubated in mouse plasma (Cedarlane™, Burlington, Ontario) or PBS supplemented with 10 U of purified esterase (Sigma-Aldrich™, St. […] Post incubation, four volumes of chloroform/methanol (2:1) was added and the mixture was vortex mixed. Samples were centrifuged at 13,000 g for 5 minutes and the upper phase was discarded. The remaining organic phase was dried down under vacuum and the resulting lipid extract was dissolved in methanol/acetonitrile (1:1). Quantity of parent LD-DEX/DTX compound was determined by ultra high pressure liquid chromatography on a Waters Acquity™ H-Class UPLC System™ equipped with a BEH C18 column and a photodiode array detector.

[5] = test system: IL1β expression in RAW 264.7 mouse macrophage cells; assay: In vitro immune suppression, LPS-treated RAW 264.7 cells, IL1β qRT-PCR; assay type: cell-based; settings: 2 ng/mL LPS, 4 h
Experimental: RAW 264.7 mouse macrophage cells were seeded at 250,000 cells per mL on 12-well plates and incubated at 37° C. overnight. Lipopolysaccharide (LPS) was dissolved in phosphate buffered saline at a concentration of 2 μg/ml. Cells were treated with lipid nanoparticles containing LD-DEX prodrugs and 2 ng/ml of LPS for 4 hours. This LPS concentration was chosen due to its ability to increase IL1β expression approximately 1000 times as compared to untreated cells. At the end of the incubation period, culture medium was aspirated and cellular RNA was extracted using the Purelink RNA™ extraction kit according to manufacturer's protocol (Life Technologies™, Burlington, ON). The concentration of extracted RNA was determined using a Nanodrop Lite™ (Thermo Fisher™). 1 μg of RNA was converted to cDNA using the High Capacity cDNA Reverse Transcription kit (Life Technologies™, Burlington, ON). In order to validate the sample preparation, a no template control and a negative reverse transcriptase control were included. The cDNA was then quantified using comparative real-time qPCR where the Ct (threshold cycle) values are converted to relative quantity using the 2-ΔΔCT method. The primer-probe sets were designed to bind to cDNA of Interleukin-1β(IL1β). Hypoxanthine-guanine phosphoribosyltransferase (HPRT) was chosen as the endogenous normalizer gene, which is known to maintain consistent levels with varying treatments.

[6] = test system: purified porcine esterase; assay: In vitro degradation of lipid-linked prodrugs in LNP, purified esterase in PBS; settings: LNP, 24 h incubation
[7] = LD-DEX prodrug in ionizable LNP
[8] = LD-DTX prodrug in ionizable LNP

| SMILES | suppression of cancer cell proliferation / IC50 comparison (in words) (OVCAR3 cells; OVCAR3, 0 to 15 μM of docetaxel, 48 h) | plasma TNFα and KC/GRO levels versus control LNP-CpG [1] | Particle size (PDI) PC-Chol LNP ([2]; LD-DEX prodrug in PC-Chol LNP) | Particle size (PDI) [ionizable LNP] [2, 7] | % Entrapment PC-Chol LNP ([3]; LD-DEX prodrug in PC-Chol LNP) | % Entrapment [ionizable LNP] [3, 7] | input amount incorporated into the final lipid nanoparticle preparation ([3]; of the input amount) | prodrug cleavage/degradation after 1 h in plasma [4] | IL1β expression versus control LNP without prodrug [5] | IC50 (OVCAR3 cells; Free drugs) | IC50 (OVCAR3 cells; PC-Chol LNP) | IC50 (OVCAR3 cells; PC-TO LNP) | IC50 (OVCAR3 cells; ionizable LNP) | Particle size (PDI) PC-Chol LNP ([2]; LD-DTX prodrug in PC-Chol LNP) | Particle size (PDI) [ionizable LNP] [2, 8] | % Entrapment PC-Chol LNP ([3]; LD-DTX prodrug in PC-Chol LNP) | % Entrapment [ionizable LNP] [3, 8] | release of active drug (UPLC chromatogram) in purified esterase [6] | release of active drug (UPLC chromatogram) in mouse plasma ([4]; 24 h incubation) |
| --- | --- | --- | --- | --- | --- | --- | --- | --- | --- | --- | --- | --- | --- | --- | --- | --- | --- | --- | --- |
| CC(=O)O[C@@]12CO[C@@H]1C[C@H](O)[C@@]1(C)C(=O)[C@H](O)C3=C(C)[C@@H](OC(=O)[C@H](O)[C@@H](NC(=O)OC(C)(C)C)c4ccccc4)C[C@@](O)([C@@H](OC(=O)c4ccccc4)[C@H]21)C3(C)C [Docetaxel, reference compound] | much lower than all the other test articles |  |  |  |  |  |  |  |  |  |  |  |  |  |  |  |  |  |  |
| CCCCC/C=C\C/C=C\CCCCCCCC(=O)OC(COC(=O)CCC(=O)OCC(=O)[C@@]1(O)[C@H](C)C[C@H]2[C@@H]3CCC4=CC(=O)C=C[C@]4(C)[C@@]3(F)[C@@H](O)C[C@@]21C)CN(C)C (some centres unmarked) [LD01-DEX] |  | marked reduction in cytokine levels | 77 (0.06) nm | [51 (0.04)] nm | 72% | [65] % | 65-72 mol % | significant cleavage |  |  |  |  |  |  |  |  |  |  |  |
| CCCCC/C=C\C/C=C\CCCCCCCCOCCCCSCC(=O)[C@@]1(O)[C@H](C)C[C@H]2[C@@H]3CCC4=CC(=O)C=C[C@]4(C)[C@@]3(F)[C@@H](O)C[C@@]21C [LD07-DEX, (8S,9R,10S,11S,13S,14S,16R,17R)-9-fluoro-11,17-dihydroxy-10,13,16-trimethyl-17-(2-((4-(linoleyloxy)butyl)thio)acetyl)-6,7,8,9,10,11,12,13,14,15,16,17-dodecahydro-3H-cyclopenta[a]phenanthren-3-one] |  | did not exhibit any immunosuppressive effects | 56 (0.03) nm | [47 (0.04)] nm | 90% | [88] % |  | no degradation | IL1β expression at a similar level to control |  |  |  |  |  |  |  |  |  |  |
| CCCCC/C=C\C/C=C\CCCCCCCC(=O)OCC(COC(=O)CCC(=O)O[C@@H](C(=O)O[C@H]1C[C@@]2(O)[C@@H](OC(=O)c3ccccc3)[C@@H]3[C@]4(OC(C)=O)CO[C@@H]4C[C@H](O)[C@@]3(C)C(=O)[C@H](O)C(=C1C)C2(C)C)[C@@H](NC(=O)OC(C)(C)C)c1ccccc1)OC(=O)CCCCCCC/C=C\C/C=C\CCCCC (stereo partly drawn) [LD10-DTX, (2R,3S)-1-(((2aR,4S,4aS,6R,9S,11S,12S,12aR,12bS)-12b-acetoxy-12-(benzoyloxy)-4,6,11-trihydroxy-4a,8,13,13-tetramethyl-5-oxo-2a,3,4,4a,5,6,9,10,11,12,12a,12b-dodecahydro-1H-7,11-methanocyclodeca[3,4]benzo[1,2-b]oxet-9-yl)oxy)-3-((tert-butoxycarbonyl)amino)-1-oxo-3-phenylpropan-2-yl (2,3-bis((9Z,12Z)-octadeca-9,12-dienoyloxy)propyl) succinate] |  |  |  |  |  |  |  | largely not degraded |  | 156 nM | 374 nM | 791 nM | 133 nM | 58 (0.06) nm | [42 (0.06)] nm | 95% | [100] % |  |  |
| CCCCCCCCCCCCCC(=O)OCC(COC(=O)CCC(=O)O[C@@H](C(=O)O[C@H]1C[C@@]2(O)[C@@H](OC(=O)c3ccccc3)[C@@H]3[C@]4(OC(C)=O)CO[C@@H]4C[C@H](O)[C@@]3(C)C(=O)[C@H](O)C(=C1C)C2(C)C)[C@@H](NC(=O)OC(C)(C)C)c1ccccc1)OC(=O)CCCCCCCCCCCCC (stereo partly drawn) [LD22-DTX, (2R,3S)-1-(((2aR,4S,4aS,6R,9S,11S,12S,12aR,12bS)-12b-acetoxy-12-(benzoyloxy)-4,6,11-trihydroxy-4a,8,13,13-tetramethyl-5-oxo-2a,3,4,4a,5,6,9,10,11,12,12a,12b-dodecahydro-1H-7,11-methanocyclodeca[3,4]benzo[1,2-b]oxet-9-yl)oxy)-3-((tert-butoxycarbonyl)amino)-1-oxo-3-phenylpropan-2-yl (2,3-bis(tetradecanoyloxy)propyl) succinate] |  |  |  |  |  |  |  | largely not degraded |  | 51.7 nM | ~1550 nM | 315 nM | 93 nM | 65 (0.04) nm | [39 (0.07)] nm | 93% | [100] % | active docetaxel (DTX) was observed | active docetaxel (DTX) was observed |
| CCCCCCCC/C=C\CCCCCCCC(=O)OCC(COC(=O)CCC(=O)O[C@@H](C(=O)O[C@H]1C[C@@]2(O)[C@@H](OC(=O)c3ccccc3)[C@@H]3[C@]4(OC(C)=O)CO[C@@H]4C[C@H](O)[C@@]3(C)C(=O)[C@H](O)C(=C1C)C2(C)C)[C@@H](NC(=O)OC(C)(C)C)c1ccccc1)OC(=O)CCCCCCC/C=C\CCCCCCCC (stereo partly drawn) [LD23-DTX, (2R,3S)-1-(((2aR,4S,4aS,6R,9S,11S,12S,12aR,12bS)-12b-acetoxy-12-(benzoyloxy)-4,6,11-trihydroxy-4a,8,13,13-tetramethyl-5-oxo-2a,3,4,4a,5,6,9,10,11,12,12a,12b-dodecahydro-1H-7,11-methanocydodeca[3,4]benzo[1,2-b]oxet-9-yl)oxy)-3-((tert-butoxycarbonyl)amino)-1-oxo-3-phenylpropan-2-yl (2,3-bis(oleoyloxy)propyl) succinate] |  |  |  |  |  |  |  | largely not degraded |  | 64.5 nM | ~15600 nM | 692 nM | 99.9 nM | 60 (0.05) nm | [39 (0.06)] nm | 100% | [100] % |  |  |
